# Data taken from article PMC6986443, “T‐495, a novel low cooperative M1 receptor positive allosteric modulator, improves memory deficits associated with cholinergic dysfunction and is characterized by low gastrointestinal side effect risk” (Pharmacology Research & Perspectives, 2020).
# What was measured:
# Experiment in all cases: Selectivity panel
# Type in all cases: binding
# [1] = target: T1, Cholecystokinin CCK2 (CCKB) (Homo sapiens, UniProt P32239)
# T1 construct: purchased Eurofins Panlabs Taiwan Ltd
# From the text: (§1) The selectivity of T‐495 at 10 μmol/L against a panel of 106 targets, including receptors, enzymes, ion channels, and transporters, was characterized (Eurofins Panlabs Taiwan Ltd., Taipei, Taiwan).
# [2] = system: Transporter, vesicular monoamine (non-selective)
# From the text: as §1
# [3] = target: T2, Angiotensin AT2 (Homo sapiens, UniProt P50052)
# T2 construct: purchased Eurofins Panlabs Taiwan Ltd
# From the text: as §1
# [4] = system: Potassium channel (KATP)
# From the text: as §1
# [5] = system: Adrenergic α2, non-selective
# From the text: as §1
# [6] = target: T3, Opiate κ (OP2, KOP) (Homo sapiens, UniProt P41145)
# T3 construct: purchased Eurofins Panlabs Taiwan Ltd
# T3 sequence (P41145 whole entry): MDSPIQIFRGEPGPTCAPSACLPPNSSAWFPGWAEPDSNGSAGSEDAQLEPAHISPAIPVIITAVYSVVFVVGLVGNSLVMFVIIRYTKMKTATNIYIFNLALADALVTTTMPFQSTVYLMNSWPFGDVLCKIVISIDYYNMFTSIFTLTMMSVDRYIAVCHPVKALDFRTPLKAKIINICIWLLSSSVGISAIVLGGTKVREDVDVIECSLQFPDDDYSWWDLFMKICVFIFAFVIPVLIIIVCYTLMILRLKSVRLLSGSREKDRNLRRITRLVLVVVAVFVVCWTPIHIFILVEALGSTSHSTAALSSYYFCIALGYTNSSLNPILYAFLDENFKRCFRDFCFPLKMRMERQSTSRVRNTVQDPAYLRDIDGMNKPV
# From the text: as §1
# [7] = system: Estrogen Receptor (non-selective)
# From the text: as §1
# [8] = target: T4, GABAB1B (Homo sapiens, UniProt Q9UBS5)
# T4 construct: purchased Eurofins Panlabs Taiwan Ltd
# From the text: as §1
# [9] = target: T5, Serotonin 5-HT2A (Homo sapiens, UniProt P28223)
# T5 construct: purchased Eurofins Panlabs Taiwan Ltd
# From the text: as §1
# [10] = target: T6, Dopamine D1 (Homo sapiens, UniProt P21728)
# T6 construct: purchased Eurofins Panlabs Taiwan Ltd
# From the text: as §1
# [11] = target: T7, Histamine H1 (Homo sapiens, UniProt P35367)
# T7 construct: purchased Eurofins Panlabs Taiwan Ltd
# From the text: as §1
# [12] = target: T8, Serotonin 5-HT1A (Homo sapiens, UniProt P08908)
# T8 construct: purchased Eurofins Panlabs Taiwan Ltd
# From the text: as §1
# [13] = target: T9, Dopamine D3 (Homo sapiens, UniProt P35462)
# T9 construct: purchased Eurofins Panlabs Taiwan Ltd
# From the text: as §1
# [14] = target: T10, Muscarinic M2 (Homo sapiens, UniProt P08172)
# T10 construct: purchased Eurofins Panlabs Taiwan Ltd
# T10 sequence (P08172 whole entry): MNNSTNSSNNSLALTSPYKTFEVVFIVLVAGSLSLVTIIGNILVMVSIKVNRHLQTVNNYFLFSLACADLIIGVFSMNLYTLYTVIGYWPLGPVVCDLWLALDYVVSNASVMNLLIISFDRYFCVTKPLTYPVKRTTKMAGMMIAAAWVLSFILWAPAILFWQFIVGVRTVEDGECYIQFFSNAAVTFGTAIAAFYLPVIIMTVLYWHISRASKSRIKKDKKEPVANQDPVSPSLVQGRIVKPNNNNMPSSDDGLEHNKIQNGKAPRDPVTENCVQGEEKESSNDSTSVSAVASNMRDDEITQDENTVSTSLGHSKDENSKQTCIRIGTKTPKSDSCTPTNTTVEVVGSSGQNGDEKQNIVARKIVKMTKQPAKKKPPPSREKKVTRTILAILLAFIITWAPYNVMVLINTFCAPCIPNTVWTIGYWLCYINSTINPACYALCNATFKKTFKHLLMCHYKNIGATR
# From the text: as §1
# [15] = system: Androgen (testosterone)
# From the text: as §1
# [16] = target: T11, Histamine H2 (Homo sapiens, UniProt P25021)
# T11 construct: purchased Eurofins Panlabs Taiwan Ltd
# From the text: as §1
# [17] = target: T12, Dopamine D2S (Homo sapiens, UniProt P14416)
# T12 construct: purchased Eurofins Panlabs Taiwan Ltd
# T12 sequence (P14416 1-414 isoform P14416-2): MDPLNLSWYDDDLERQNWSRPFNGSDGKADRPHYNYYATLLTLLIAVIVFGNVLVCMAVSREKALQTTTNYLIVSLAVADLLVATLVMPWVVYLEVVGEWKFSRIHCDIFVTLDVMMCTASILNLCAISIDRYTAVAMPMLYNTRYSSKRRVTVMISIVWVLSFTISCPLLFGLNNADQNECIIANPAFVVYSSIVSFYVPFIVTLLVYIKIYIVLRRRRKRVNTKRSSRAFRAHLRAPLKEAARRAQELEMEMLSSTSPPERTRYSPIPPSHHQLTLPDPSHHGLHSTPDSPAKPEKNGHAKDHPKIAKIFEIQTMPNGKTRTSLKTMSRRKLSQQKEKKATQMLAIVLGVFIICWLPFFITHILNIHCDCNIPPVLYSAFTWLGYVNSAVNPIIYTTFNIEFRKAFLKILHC
# From the text: as §1
# [18] = target: T13, Dopamine D2L (Homo sapiens, UniProt P14416)
# T13 construct: purchased Eurofins Panlabs Taiwan Ltd
# From the text: as §1
# [19] = target: T14, Vasopressin V1A (Homo sapiens, UniProt P37288)
# T14 construct: purchased Eurofins Panlabs Taiwan Ltd
# From the text: as §1
# [20] = target: T15, Adrenergic β2 (Homo sapiens, UniProt P07550)
# T15 construct: purchased Eurofins Panlabs Taiwan Ltd
# T15 sequence (P07550 whole entry): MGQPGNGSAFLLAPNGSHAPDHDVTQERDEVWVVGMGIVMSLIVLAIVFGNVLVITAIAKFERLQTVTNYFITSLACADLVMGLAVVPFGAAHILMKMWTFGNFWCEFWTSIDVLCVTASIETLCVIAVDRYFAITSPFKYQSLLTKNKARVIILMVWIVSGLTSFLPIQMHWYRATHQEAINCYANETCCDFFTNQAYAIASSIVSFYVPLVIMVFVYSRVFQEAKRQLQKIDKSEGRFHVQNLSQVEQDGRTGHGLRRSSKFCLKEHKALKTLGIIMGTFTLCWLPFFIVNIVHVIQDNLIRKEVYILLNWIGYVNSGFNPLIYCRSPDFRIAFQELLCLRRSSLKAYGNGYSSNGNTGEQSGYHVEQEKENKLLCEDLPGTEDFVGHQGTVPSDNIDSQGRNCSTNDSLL
# From the text: as §1
# [21] = target: T16, Adenosine A1 (Homo sapiens, UniProt P30542)
# T16 construct: purchased Eurofins Panlabs Taiwan Ltd
# T16 sequence (P30542 whole entry): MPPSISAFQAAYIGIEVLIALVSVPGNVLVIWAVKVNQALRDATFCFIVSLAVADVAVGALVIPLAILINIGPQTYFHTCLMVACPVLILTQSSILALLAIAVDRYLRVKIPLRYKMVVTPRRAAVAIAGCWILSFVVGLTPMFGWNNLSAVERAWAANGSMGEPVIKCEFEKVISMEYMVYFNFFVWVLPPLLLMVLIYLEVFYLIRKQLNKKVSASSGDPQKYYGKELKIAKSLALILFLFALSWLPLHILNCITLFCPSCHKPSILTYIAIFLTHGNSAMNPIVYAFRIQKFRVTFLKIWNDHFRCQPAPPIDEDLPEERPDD
# From the text: as §1
# [22] = system: Calcium channel L-type, dihydropyridine
# From the text: as §1
# [23] = system: Calcium channel L-type, benzothiazepine
# From the text: as §1
# [24] = system: Nicotinic acetylcholine
# From the text: as §1
# [25] = system: Glutamate, NMDA
# From the text: as §1
# [26] = target: T17, Muscarinic M3 (Homo sapiens, UniProt P20309)
# T17 construct: purchased Eurofins Panlabs Taiwan Ltd
# From the text: as §1
# [27] = target: T18, Muscarinic M1 (Homo sapiens, UniProt P11229)
# T18 construct: purchased Eurofins Panlabs Taiwan Ltd
# From the text: as §1
# [28] = system: Glutamate, NMDA, phencyclidine
# From the text: as §1
# [29] = target: T19, Bradykinin B1 (Homo sapiens, UniProt P46663)
# T19 construct: purchased Eurofins Panlabs Taiwan Ltd
# From the text: as §1
# [30] = target: T20, Adrenergic β1 (Homo sapiens, UniProt P08588)
# T20 construct: purchased Eurofins Panlabs Taiwan Ltd
# T20 sequence (P08588 whole entry): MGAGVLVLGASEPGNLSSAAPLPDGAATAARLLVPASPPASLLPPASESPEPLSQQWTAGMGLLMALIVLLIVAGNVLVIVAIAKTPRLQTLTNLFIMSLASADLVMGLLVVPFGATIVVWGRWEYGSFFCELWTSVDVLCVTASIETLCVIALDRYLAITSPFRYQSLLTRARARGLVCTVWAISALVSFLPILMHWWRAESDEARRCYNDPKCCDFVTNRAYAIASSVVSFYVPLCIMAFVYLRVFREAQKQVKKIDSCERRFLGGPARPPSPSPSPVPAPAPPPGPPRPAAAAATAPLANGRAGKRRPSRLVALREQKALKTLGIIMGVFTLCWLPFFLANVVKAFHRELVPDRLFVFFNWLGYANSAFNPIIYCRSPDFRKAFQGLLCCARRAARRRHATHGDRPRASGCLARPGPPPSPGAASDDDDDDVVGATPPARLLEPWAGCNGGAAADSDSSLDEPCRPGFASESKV
# From the text: as §1
# [31] = system: Transporter, GABA
# From the text: as §1
# [32] = system: Imidazoline I2, central
# From the text: as §1
# [33] = target: T21, IP (PGI2) (Homo sapiens, UniProt P43119)
# T21 construct: purchased Eurofins Panlabs Taiwan Ltd
# From the text: as §1
# [34] = target: T22, GABAB1A (Homo sapiens, UniProt Q9UBS5)
# T22 construct: purchased Eurofins Panlabs Taiwan Ltd
# T22 sequence (Q9UBS5 15-961 limits assumed): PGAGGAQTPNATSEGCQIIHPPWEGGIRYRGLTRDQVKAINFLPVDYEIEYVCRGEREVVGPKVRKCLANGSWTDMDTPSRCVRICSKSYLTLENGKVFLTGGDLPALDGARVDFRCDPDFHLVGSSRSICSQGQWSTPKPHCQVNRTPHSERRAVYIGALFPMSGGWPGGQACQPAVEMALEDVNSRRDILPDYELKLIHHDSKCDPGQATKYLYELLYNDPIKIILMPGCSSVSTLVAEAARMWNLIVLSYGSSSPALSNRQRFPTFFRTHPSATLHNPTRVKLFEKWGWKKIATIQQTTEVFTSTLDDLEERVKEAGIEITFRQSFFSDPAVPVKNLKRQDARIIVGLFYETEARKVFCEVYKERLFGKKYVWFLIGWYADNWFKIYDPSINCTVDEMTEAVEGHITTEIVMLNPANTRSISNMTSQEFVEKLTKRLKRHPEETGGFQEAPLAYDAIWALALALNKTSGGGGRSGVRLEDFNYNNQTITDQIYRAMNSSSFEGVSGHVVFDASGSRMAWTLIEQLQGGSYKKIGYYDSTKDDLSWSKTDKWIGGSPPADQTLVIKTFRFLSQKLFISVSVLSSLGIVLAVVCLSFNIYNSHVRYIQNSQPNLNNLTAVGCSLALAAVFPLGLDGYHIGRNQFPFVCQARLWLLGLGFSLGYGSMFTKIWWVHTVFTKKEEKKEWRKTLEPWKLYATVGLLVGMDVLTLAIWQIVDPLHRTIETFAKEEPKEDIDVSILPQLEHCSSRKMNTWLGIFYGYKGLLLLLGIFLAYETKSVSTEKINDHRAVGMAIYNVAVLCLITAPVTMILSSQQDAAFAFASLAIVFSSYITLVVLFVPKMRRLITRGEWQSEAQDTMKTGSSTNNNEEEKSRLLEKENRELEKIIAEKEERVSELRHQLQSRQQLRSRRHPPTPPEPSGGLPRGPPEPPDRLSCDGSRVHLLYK
# T22 sequence (O75899 42-941 partner): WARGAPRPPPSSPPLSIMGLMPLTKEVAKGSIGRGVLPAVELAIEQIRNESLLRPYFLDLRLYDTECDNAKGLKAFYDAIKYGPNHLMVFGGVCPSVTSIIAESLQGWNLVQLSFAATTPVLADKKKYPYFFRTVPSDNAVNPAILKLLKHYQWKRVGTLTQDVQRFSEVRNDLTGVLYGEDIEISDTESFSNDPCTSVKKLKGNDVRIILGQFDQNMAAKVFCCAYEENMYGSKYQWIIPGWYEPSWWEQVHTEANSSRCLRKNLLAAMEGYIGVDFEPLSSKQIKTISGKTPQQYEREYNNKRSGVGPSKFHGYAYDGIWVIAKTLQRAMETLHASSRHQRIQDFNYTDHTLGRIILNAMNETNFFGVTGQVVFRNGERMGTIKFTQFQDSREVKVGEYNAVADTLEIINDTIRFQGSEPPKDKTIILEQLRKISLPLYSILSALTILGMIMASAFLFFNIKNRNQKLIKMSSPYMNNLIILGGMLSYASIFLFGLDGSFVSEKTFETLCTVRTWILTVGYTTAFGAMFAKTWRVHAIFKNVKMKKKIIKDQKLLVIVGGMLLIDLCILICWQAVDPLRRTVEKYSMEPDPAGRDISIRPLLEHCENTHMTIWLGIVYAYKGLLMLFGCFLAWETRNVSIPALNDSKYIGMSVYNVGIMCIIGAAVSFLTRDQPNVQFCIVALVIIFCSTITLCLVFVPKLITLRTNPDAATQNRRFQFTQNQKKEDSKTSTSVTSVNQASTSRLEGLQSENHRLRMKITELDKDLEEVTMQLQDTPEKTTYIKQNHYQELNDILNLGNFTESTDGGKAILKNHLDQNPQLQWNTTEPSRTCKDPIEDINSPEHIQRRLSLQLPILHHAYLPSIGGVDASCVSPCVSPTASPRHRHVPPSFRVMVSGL
# From the text: as §1
# [35] = target: T23, Serotonin 5-HT2C (Homo sapiens, UniProt P28335)
# T23 construct: purchased Eurofins Panlabs Taiwan Ltd
# From the text: as §1
# [36] = target: T24, Opiate δ1 (OP1, DOP) (Homo sapiens, UniProt P41143)
# T24 construct: purchased Eurofins Panlabs Taiwan Ltd
# From the text: as §1
# [37] = system: Glutamate, kainate
# From the text: as §1
# [38] = system: GABAB, non-selective
# From the text: as §1
# [39] = system: Dopamine D4.2
# From the text: as §1
# [40] = system: Adrenergic α1, non-selective
# From the text: as §1
# [41] = system: GABAA, flunitrazepam, central
# From the text: as §1
# [42] = target: T25, Transporter, serotonin (SERT) (Homo sapiens, UniProt P31645)
# T25 construct: purchased Eurofins Panlabs Taiwan Ltd
# T25 sequence (P31645 whole entry): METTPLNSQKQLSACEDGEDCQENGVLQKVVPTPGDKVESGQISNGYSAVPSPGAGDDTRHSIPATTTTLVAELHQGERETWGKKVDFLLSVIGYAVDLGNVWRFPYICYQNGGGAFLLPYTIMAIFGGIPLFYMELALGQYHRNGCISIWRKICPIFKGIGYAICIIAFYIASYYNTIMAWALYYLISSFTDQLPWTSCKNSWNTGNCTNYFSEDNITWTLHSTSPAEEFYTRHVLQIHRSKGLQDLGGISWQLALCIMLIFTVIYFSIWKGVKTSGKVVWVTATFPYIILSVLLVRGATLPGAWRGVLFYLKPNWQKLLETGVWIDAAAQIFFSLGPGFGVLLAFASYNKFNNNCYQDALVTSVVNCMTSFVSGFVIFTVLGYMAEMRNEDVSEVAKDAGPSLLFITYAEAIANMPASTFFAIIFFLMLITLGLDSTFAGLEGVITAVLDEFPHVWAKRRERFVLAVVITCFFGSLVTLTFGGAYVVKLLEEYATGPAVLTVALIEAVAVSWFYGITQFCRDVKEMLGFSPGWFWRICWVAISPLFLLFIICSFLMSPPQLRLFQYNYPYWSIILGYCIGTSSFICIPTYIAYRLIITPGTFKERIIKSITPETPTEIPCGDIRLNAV
# From the text: as §1
# [43] = system: Sigma, non-selective
# From the text: as §1
# [44] = target: T26, Glucocorticoid (Homo sapiens, UniProt P04150)
# T26 construct: purchased Eurofins Panlabs Taiwan Ltd
# From the text: as §1
# [45] = target: T27, Adenosine A2A (Homo sapiens, UniProt P29274)
# T27 construct: purchased Eurofins Panlabs Taiwan Ltd
# From the text: as §1
# [46] = system: GABAA, muscimol, central
# From the text: as §1
# [47] = system: Glycine, strychnine-sensitive
# From the text: as §1
smiles,measurement,setting,value
"Cc1c(Cc2ccc(Cl)nc2)cc2c(c1Cl)OCN([C@H]1CCC[C@@H]1O)C2=O [T‐495, 8‐chloro‐6‐((6‐chloropyridin‐3‐yl)methyl)‐3‐((1S,2S)‐2‐hydroxycyclopentyl)‐7‐methyl‐2,3‐dihydro‐4H‐1,3‐benzoxazin‐4‐one]",inhibition at 10 µM,[1],10%
same,% inhibition at 10 μM,[2],12%
same,inhibition at 10 µM,[3],0%
same,% inhibition at 10 μM,[4],2%
same,% inhibition at 10 μM,[5],26%
same,inhibition at 10 µM,[6],14%
same,% inhibition at 10 μM,[7],5%
same,inhibition at 10 µM,[8],6%
same,inhibition at 10 µM,[9],20%
same,inhibition at 10 µM,[10],-7%
same,inhibition at 10 µM,[11],2%
same,inhibition at 10 µM,[12],8%
same,inhibition at 10 µM,[13],-3%
same,inhibition at 10 µM,[14],8%
same,% inhibition at 10 μM,[15],3%
same,inhibition at 10 µM,[16],22%
same,inhibition at 10 µM,[17],15%
same,inhibition at 10 µM,[18],4%
same,inhibition at 10 µM,[19],7%
same,inhibition at 10 µM,[20],15%
same,inhibition at 10 µM,[21],15%
same,% inhibition at 10 μM,[22],27%
same,% inhibition at 10 μM,[23],-5%
same,% inhibition at 10 μM,[24],-4%
same,% inhibition at 10 μM,[25],14%
same,inhibition at 10 µM,[26],20%
same,inhibition at 10 µM,[27],15%
same,% inhibition at 10 μM,[28],3%
same,inhibition at 10 µM,[29],2%
same,inhibition at 10 µM,[30],4%
same,% inhibition at 10 μM,[31],-7%
same,% inhibition at 10 μM,[32],76%
same,inhibition at 10 µM,[33],16%
same,inhibition at 10 µM,[34],5%
same,inhibition at 10 µM,[35],10%
same,inhibition at 10 µM,[36],4%
same,% inhibition at 10 μM,[37],13%
same,% inhibition at 10 μM,[38],4%
same,% inhibition at 10 μM,[39],3%
same,% inhibition at 10 μM,[40],11%
same,% inhibition at 10 μM,[41],12%
same,inhibition at 10 µM,[42],17%
same,% inhibition at 10 μM,[43],25%
same,inhibition at 10 µM,[44],25%
same,inhibition at 10 µM,[45],-4%
same,% inhibition at 10 μM,[46],-1%
same,% inhibition at 10 μM,[47],9%
